The values that follow come from ChEMBL document CHEMBL1201862, “PubChem BioAssay data set” (2004).

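A five-concentration, 48-hour dose response in 96-well plates underlies each endpoint, interpolated linearly between surrounding concentrations. GI50: concentration for 50% inhibition of growth.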 Activity calls are given as the source filed them. Cut-off read from the data, not from the text of the source: active = GI50 up to about 1.1 µM and inactive = higher.

Among the test systems are NCI-H460; OVCAR-8; HL-60; SNB-19; HCC 2998; OVCAR-3; MCF7; CCRF-CEM; SNB-75; SF-539; SK-MEL-5; HOP-92; MDA-N; Hs-578T; EKVX; Malme-3M; K562; PC-3; UO-31; HOP-62.
What all share (assay): NCI tumour cell line growth inhibition, 48 h

In the case of `C/C(=C\[C@H]1C[C@@H]([C@@H]2CC[C@]34C[C@]23C=C[C@@H]2[C@@]3(C)CC=C5C[C@@H](c6ccccc6)OC[C@]5(C)[C@@H]3C[C@@H](O)[C@]24C)C(=O)O1)CO` [DICHAPETALIN A], the GI50 was 721 nM (active) with NCI-H460; 4910 nM (inactive) in the experiment with OVCAR-8; 1200 nM (inactive) with HL-60; 11800 nM (inactive) in the experiment on SNB-19; 6000 nM (inactive) in the experiment on HCC 2998; 3520 nM (inactive) with OVCAR-3. For the same compound, the GI50 in the experiment on MCF7 was 1780 nM (inactive); in the experiment with CCRF-CEM, 1040 nM (active); in the experiment with SNB-75 it was 3550 nM (inactive); in the experiment on SF-539, 5080 nM (inactive); in the experiment on SK-MEL-5, 286 nM (active); in the experiment on HOP-92, 1950 nM (inactive). Also, the GI50 was 1710 nM (inactive) in the experiment on MDA-N; 10900 nM (inactive) in the experiment on Hs-578T; 1510 nM (inactive) in the experiment with EKVX; 3560 nM (inactive) with Malme-3M; 553 nM (active) in the experiment with K562; 2640 nM (inactive) in the experiment with PC-3. Further, the GI50 with UO-31 is 2480 nM (inactive); in the experiment with HOP-62, 10200 nM (inactive).
